Assay results published in PubChem BioAssay (NCI).
Several values for one entry are separate records, joined by “and”; a condition that tells them apart may be missing. Equal entries are not always repeated.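 Interpolation was linear, between the two tested concentrations surrounding the appropriate level; five concentrations were tested over 48 hours in 96-well plates. At the GI50, growth is halved. The concentration for full growth arrest is given as TGI.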

What follows are molecules tested on MDA-MB-468 breast (assay: growth of human tumour cells (NCI), 48 h).

SMILES	GI50	TGI
COc1ccc(-c2csc3c2-n2cccc2C3=O)cc1O	397 nM	2430 nM
C=C(C)[C@@H]1CC[C@]2(C(=O)NCCNCCNCCN)CC[C@]3(C)[C@H](CC[C@@H]4[C@@]5(C)CCC(=O)C(C)(C)[C@@H]5CC[C@]43C)[C@@H]12	8090 nM	16100 nM
Cc1ccc(Oc2nc3ccccc3cc2-c2nnc(Cn3c(COc4ccccc4)nc4ccccc43)o2)cc1	3950 nM	18300 nM
CCCn1cnc2c(c1=N)C(c1ccc(OC)cc1)c1sc3c(C)cccc3c1O2 (stereo not given)	360 nM	13400 nM
O=C1OCC2=C1C(c1cccc(C(F)(F)F)c1)c1cc3c(cc1N2CCO)CCC3 (stereo not given)	127 nM	1200 nM
COc1ccc(-c2nc3sc4c(c3c(=O)[nH]2)CCCC4)c2ccccc12	1420 nM	5550 nM and 8960 nM
COc1ccc2[nH]cc(-c3nc(-c4c[nH]c5ccncc45)cs3)c2c1	1780 nM	3670 nM
N/C(=N\c1nc2ccccc2s1)NC(=O)Nc1cccc2ccccc12	372 nM	22700 nM
CCCCCCN1CCN(Cc2ccc(N(CC)CC)cc2)C(=O)C1=O	1590 nM	16100 nM
N=C(N)c1ccc(-c2ccc(-c3ccc(F)cc3)o2)o1	1360 nM	3000 nM
Cc1ccc(F)cc1NC(=O)c1cc(Cl)ccc1Nc1ccccc1	> 100000 nM	> 100000 nM
C[C@@H]1COC(Nc2ccc3ncnc(Nc4ccc(OCc5nccs5)c(Cl)c4)c3c2)=N1	181 nM and 39.6 nM	1590 nM and 294 nM
COC(=O)[C@@H]1CCCN1C(=O)[C@H]1CCCN1C(=O)[C@@H](Cc1c[nH]c2ccccc12)NC(=S)Nc1cc(C(F)(F)F)cc(C(F)(F)F)c1	2150 nM	6940 nM
COc1cc(-c2n/c(=C\c3c(O)[nH]c4ccccc34)cc3c2=Nc2ccccc2-3)cc(OC)c1OC	2570 nM	7740 nM
Oc1cc(Cl)ccc1Cc1ccc(Cl)cc1O	11700 nM	35500 nM
COc1ccc(-c2ccccc2)cc1-c1c(Nc2cc(Cl)cc(Cl)c2O)c(=O)c1=O	1130 nM	3910 nM
O=[N+]([O-])c1cccc(-c2cc(-c3cc(Br)ccc3O)[nH]n2)c1	1470 nM	21100 nM
Nc1ccc(-n2c(=O)oc3ccc(Cl)cc3c2=O)c(Cl)c1	90.3 nM	383 nM
COc1cc2ncn(-c3cc(OCc4ccccc4S(C)(=O)=O)c(C#N)s3)c2cc1OC	> 25000 nM	> 25000 nM
Cc1cc(NC(=O)NC(=O)c2ccccc2NC(=O)CN)ccc1Oc1ncc(Br)cn1	65 nM	36800 nM

SMILES	GI50	TGI
Cc1cc2nc3c4cccc(O)c4n(CCN(C)C)c3nc2cc1C	2560 nM	8190 nM
Nc1nc(-c2cccc([N+](=O)[O-])c2)c(N=Nc2ccc([N+](=O)[O-])cc2Cl)s1	131 nM	711 nM
CCN1CCC(CC(=O)Nc2n[nH]c3nc(-c4cccs4)c(Br)cc23)CC1	4530 nM	10800 nM
CNCCOC(=O)/C=C1/CCC2C(C(O)CC3C(C)(C(=O)OC)CCCC23C)C1C (stereo not given)	37.7 nM	148 nM
COC1[C@@H]2C[C@H]3C(C)(C)O[C@@](C/C=C(/C)C(=O)O)(C2=O)[C@]32Oc3c(CC=C(C)C)c4c(c(O)c3C(=O)[C@H]12)C=CC(C)(C)O4 (stereo not given in full)	7460 nM	25000 nM
Cc1ccc(-c2cc3nc(C(Cl)Cl)nc(-c4ccco4)n3n2)cc1	566 nM	3050 nM
CC(=O)NC1=CC(=O)c2cc(C)cc(O)c2C1=O	1870 nM	5980 nM
Cc1ccccc1C(C(=O)NC1CCCCC1)N(C(=O)Cn1ccnc1C)c1cccc(F)c1 (stereo not given)	> 100000 nM	> 100000 nM
CCCCCCCCCCCCCCCCn1cc[n+](Cc2ccccc2)c1C	305 nM	840 nM
O=C(/C=C\c1ccc2ccccc2n1)c1cc(Cl)ccc1O	5100 nM	19700 nM
O=C(Nc1cccc(-n2ccc3c(NC(=O)c4ccccc4)nccc32)c1)c1cc(N2CCOCC2)cc(C(F)(F)F)c1	48.4 nM	1420 nM
COc1ccc(/C=C\c2cc(OC)c(OC)c(OC)c2)cc1OCC(=O)Nc1nc2ccc(OC(F)(F)F)cc2s1	2300 nM	6880 nM
CCC(=O)c1ccc2c(c1)N(CCCN1CCN(CCO)CC1)c1ccccc1S2	10500 nM	23500 nM
Cc1ccc(C[P+](c2ccccc2)(c2ccccc2)c2ccccc2)cc1	172 nM	1190 nM
CC(C)CCC[C@@H](C)[C@H]1CCC2C3=CCC4C(=O)C=CC(=O)C4C3CC[C@@]21C (stereo not given in full)	215 nM	570 nM
COc1ccc(-c2cc(-c3nnc(SCC(=O)Nc4ccc(C(C)=O)cc4)o3)c3ccccc3n2)cc1	> 100000 nM	> 100000 nM
COc1cc(OC)cc(-c2cncn2-c2ccc(-c3nc4cc(OC)cc(OC)c4s3)cc2)c1	3170 nM	> 100000 nM
O=[N+]([O-])/C=C/c1ccc([N+](=O)[O-])cc1	1510 nM	3300 nM
Cc1cc(C)c2c(N)c3cccc(C)c3nc2n1	1280 nM	3370 nM
Oc1ccc(CN(Cc2ccc(C(F)(F)F)cc2)Cc2ccc(O)c3ncccc23)c2cccnc12	23.6 nM	2230 nM
